Consider 29 compounds from patent US20250002452A1, “BICYCLOPENTANE DERIVATIVES” (ICAGEN, LLC, priority 2022, published 2025).

The target in the test is human Kv7.2 (Homo sapiens (Human), UniProt O43526). Briefly: SyncroPatch 384 electrophysiology, activation of Kv7.2 in CHO cells. It counts as cell-based. Particulars: Kv7.2 activation max %, relative to 30 μM ML-213 max activation. On the procedure:
The potency of Kv7 uotentiators was determined using the SyncroPatch 384 (Nanion) high throughput electrophysiology platform.
CHO cells stably expressing either human Kv7.2, Kv7.4 or Kv7.5/7.3 under a constitutive CMV promoter were used for these studies. Cells were maintained in F12 Hams+1 mM L-glutamine (Hyclone) supplemented with 10% FBS (Sigma), 0.3× NEAA (Non-essential Gamino-acids) and 400ug/ml G418 at 37° C. in 5% CO2. Cells were cultured in T-225 flasks (Nunc) for 2-3 days to reach 85-95% confluence prior to electrophysiological recording.
Earle's balanced salt solution (in mM): 135 NaCl, 5.4 KCl, 5 Glucose, 2 CaCl2), 1 MgCl2, 5 HEPES, pH 7.4. Seal enhancer solution (in mM): 90 NaCl, 3 KCl, 35 CaCl2), 10 MgCl2, 10 HEPES, pH 7.4. Extracellular recording solution (in mM): 71 NaCl, 70 NMDG, 13 KCl, 5 Glucose, 2 CaCl2), 1 MgCl2, 10 HEPES, pH 7.4. Intracellular recording solution (in mM): 130 KF, 20 KCl, 4 EGTA, 10 HEPES, 2 EDTA, 0.01 Escin, pH 7.2.
Cells were harvested for electrophysiological recording upon reaching appropriate confluence. Cells were first washed in DPBS (Hyclone, Cat #SH30028.03) and then 2 ml of Accutase (MP Biomedicals #1000449) was added at 28° C. until ˜90% of cells were suspended. F12 HAM's media+1 mM L-glutamine (Hyclone, SH30026.02) was then added to the flask to dilute the accutase. Cells were then triturated until a single cell suspension was achieved, a cell count was performed, and cells were centrifuged for 2 min. at 1,000 rpm. Media was then aspirated, and cells were resuspended in Earle's balanced salt solution to a concentration of 0.75×10^6 cells/ml and allowed to recover for 25 min at 10° C.
At the beginning of each assay, 20 μl of cell suspension was dispensed into each well of a multi-hole 384-well SyncroPatch chip by the onboard pipettor. Cell sealing was initiated, and seal enhancer solution was added to facilitate seal formation. Upon completion of sealing, cells were washed 3 times with extracellular recording solution and the assay voltage protocol was started. Human Kv7.2, Kv7.4 or Kv7.5/7.3 channels were evaluated using a voltage protocol in which cells were voltage-clamped at a holding potential of −60 mV. Potassium currents were continuously activated with a series of three voltage steps to −30 mV for 3 seconds, 40 mV for 1 second and −90 mV for 4 seconds with 12 seconds between successive voltage sweeps. Potassium currents were measured from the −90 mV repolarizing step. Baseline current was assessed for 3.5 minutes prior to the addition of 5.6 μM zinc pyrithione (1μM for Kv7.4). Kv7.2, Kv7.4 or Kv7.5/7.3 current in the presence of zinc pyrithione was acquired over five minutes to allow channels to reach steady state activity prior to addition of test agents. Channel activity was monitored for three minutes preceding the addition of 30 μM ML-213 (3 minutes) to achieve maximum activation. 150 mM TEA with 10 μM XE-991 was applied for 2 minutes to measure the leak current during maximum inhibition of Kv7.2, Kv7.4 or Kv7.5/7.3 channels.
Example 61 Data Analysis Data were collected on the SyncroPatch platform using PatchControl software (Nanion) and processed and analyzed using DataControl Software (Nanion). Percent activation was calculated from potassium current as follows: The average current for the 5 sweeps in the presence of zinc pyrithione immediately preceding test agent addition was taken as the ‘control’ data. Likewise, the average potassium current in the presence of test agents 5 sweeps immediately preceding addition of 30 μM ML-213 was determined for ‘drug’ data. The average potassium current 5 sweeps immediately prior to addition of 150 mM TEA+10 μM XE-991 was determined for ‘max activation’ data while average currents from 5 sweeps immediately following addition of TEA was determined for ‘max inhibition’ data. […]
Background: The patch-clamp technique gives a direct electrical read-out from membranes.
Take `COC12CC(NC(=O)NCc3cccc(OC(F)(F)F)c3)(C1)C2` [Example 1, 1-(3-methoxy-1-bicyclo[1.1.1]pentanyl)-3-[[3-(trifluoromethoxy)phenyl]methyl]urea]: the Kv7.2 max turned out to be 73%.

Consider `O=C(NCc1cccc(OC(F)(F)F)c1)NC12CC(C(F)(F)F)(C1)C2` [Example 2, 1-[[3-(trifluoromethoxy)phenyl]methyl]-3-[3-(trifluoromethyl)-1-bicyclo[1.1.1]pentanyl]urea], for which the Kv7.2 max was 70%.

Consider `O=C(N[C@@H](CO)c1cccc(Cl)c1)NC12CC(C(F)(F)F)(C1)C2` [Example 3, 1-[(1R)-1-(3-chlorophenyl)-2-hydroxyethyl]-3-[3-(trifluoromethyl)-1-bicyclo[1.1.1]pentanyl]urea], for which the Kv7.2 max is listed as 48%.

In turn, `COC12CC(NC(=O)NCc3cccc(C(F)(F)F)c3)(C1)C2` [Example 4, 1-(3-methoxy-1-bicyclo[1.1.1]pentanyl)-3-[[3-(trifluoromethyl)phenyl]methyl]urea] gave a Kv7.2 max of 64%.

The compound `N#Cc1cccc(CNC(=O)NC23CC(C(F)(F)F)(C2)C3)c1` [Example 5, 1-[(3-cyanophenyl)methyl]-3-[3-(trifluoromethyl)-1-bicyclo[1.1.1]pentanyl]urea] displayed a Kv7.2 max of 41%.

As for `O=C(NCc1cccc(OC(F)(F)F)c1)NC12CC(F)(C1)C2` [Example 6, 1-(3-fluoro-1-bicyclo[1.1.1]pentanyl)-3-[[3-(trifluoromethoxy)phenyl]methyl]urea], the Kv7.2 max came out at 76%.

Regarding `O=C(NCc1cccc(C(F)(F)F)c1)NC12CC(C(F)(F)F)(C1)C2` [Example 7, 1-[3-(trifluoromethyl)-1-bicyclo[1.1.1]pentanyl]-3-[[3-(trifluoromethyl)phenyl]methyl]urea], the Kv7.2 max was 75%.

`COc1cccc([C@H](C)NC(=O)NC23CC(F)(C2)C3)c1` [Example 8, 1-(3-fluoro-1-bicyclo[1.1.1]pentanyl)-3-[(1S)-1-(3-methoxyphenyl)ethyl]urea]: the Kv7.2 max worked out at 57%.

In the case of `C[C@H](NC(=O)NC12CC(F)(C1)C2)c1cccc(C(F)(F)F)c1` [Example 9, 1-(3-fluoro-1-bicyclo[1.1.1]pentanyl)-3-[(1S)-1-[3-(trifluoromethyl)phenyl]ethyl]urea], the Kv7.2 max was 51%.

On to `C[C@H](NC(=O)NC12CC(F)(C1)C2)c1cccc(OC(F)(F)F)c1` [Example 10, 1-(3-fluoro-1-bicyclo[1.1.1]pentanyl)-3-[(1S)-1-[3-(trifluoromethoxy)phenyl]ethyl]urea], for which the Kv7.2 max is 40%.

`O=C(NCc1cccc(C(F)(F)F)c1)NC12CC(F)(C1)C2` [Example 11, 1-(3-fluoro-1-bicyclo[1.1.1]pentanyl)-3-[[3-(trifluoromethyl)phenyl]methyl]urea] gave a Kv7.2 max of 80%.

As for `O=C(N[C@@H](CO)c1cccc(Br)c1)NC12CC(C(F)(F)F)(C1)C2` [Example 12, 1-[(1R)-1-(3-bromophenyl)-2-hydroxyethyl]-3-[3-(trifluoromethyl)-1-bicyclo[1.1.1]pentanyl]urea], the Kv7.2 max came to 69%.

`N#Cc1cccc(CNC(=O)NC23CC(F)(C2)C3)c1` [Example 13, 1-[(3-cyanophenyl)methyl]-3-(3-fluoro-1-bicyclo[1.1.1]pentanyl)urea] registered a Kv7.2 max of 48%.

Compound `CC12CC(NC(=O)NCc3cccc(C#N)c3)(C1)C2` [Example 14, 1-[(3-cyanophenyl)methyl]-3-(3-methyl-1-bicyclo[1.1.1]pentanyl)urea] returned a Kv7.2 max of 50%.

The compound `N#Cc1cccc(CNC(=O)NC23CC(C(F)F)(C2)C3)c1` [Example 15, 1-[(3-cyanophenyl)methyl]-3-[3-(difluoromethyl)-1-bicyclo[1.1.1]pentanyl]urea] showed a Kv7.2 max of 58%.

For the compound `C[C@H](NC(=O)NC12CC(F)(C1)C2)c1cccc(Br)c1` [Example 16, 1-[(1S)-1-(3-bromophenyl)ethyl]-3-(3-fluoro-1-bicyclo[1.1.1]pentanyl)urea], the Kv7.2 max is reported as 40%.

In turn, `O=C(N[C@@H](CO)c1cccc(Br)c1)NC12CC(F)(C1)C2` [Example 17, 1-[(1R)-1-(3-bromophenyl)-2-hydroxyethyl]-3-(3-fluoro-1-bicyclo[1.1.1]pentanyl)urea] returned a Kv7.2 max of 69%.

In turn, `C[C@H](NC(=O)NC12CC(F)(C1)C2)c1cccc(Cl)c1` [Example 18, 1-[(1S)-1-(3-chlorophenyl)ethyl]-3-(3-fluoro-1-bicyclo[1.1.1]pentanyl)urea] showed a Kv7.2 max of 47%.

For the compound `O=C(NCc1cccc(F)c1)NC12CC(F)(C1)C2` [Example 19, 1-(3-fluoro-1-bicyclo[1.1.1]pentanyl)-3-[(3-fluorophenyl)methyl]urea], the Kv7.2 max is given as 49%.

`CC12CC(NC(=O)NCc3cccc(C(F)(F)F)c3)(C1)C2` [Example 20, 1-(3-methyl-1-bicyclo[1.1.1]pentanyl)-3-[[3-(trifluoromethyl)phenyl]methyl]urea] registered a Kv7.2 max of 77%.

`CC(C)C12CC(NC(=O)NCc3cccc(C(F)(F)F)c3)(C1)C2` [Example 21, 1-(3-propan-2-yl-1-bicyclo[1.1.1]pentanyl)-3-[[3-(trifluoromethyl)phenyl]methyl]urea]: the Kv7.2 max is 67%.

The compound `O=C(NCc1cccc(C(F)(F)F)c1)NC12CC(C(F)F)(C1)C2` [Example 22, 1-[3-(difluoromethyl)-1-bicyclo[1.1.1]pentanyl]-3-[[3-(trifluoromethyl)phenyl]methyl]urea] returned a Kv7.2 max of 74%.

The compound `O=C(NCc1cccc(C(F)(F)F)c1)NC12CC(C1)C2` [Example 23, 1-(1-bicyclo[1.1.1]pentanyl)-3-[[3-(trifluoromethyl)phenyl]methyl]urea] gave a Kv7.2 max of 79%.

Turning to `C[C@H](NC(=O)NC12CC(F)(C1)C2)c1cccc(F)c1` [Example 24, 1-(3-fluoro-1-bicyclo[1.1.1]pentanyl)-3-[(1S)-1-(3-fluorophenyl)ethyl]urea], the Kv7.2 max amounted to 51%.

With `C[C@H](NC(=O)NC12CC(C1)C2)c1cccc(OC(F)(F)F)c1` [Example 25, 1-(1-bicyclo[1.1.1]pentanyl)-3-[(1S)-1-[3-(trifluoromethoxy)phenyl]ethyl]urea], the Kv7.2 max is 45%.

In turn, `C[C@H](NC(=O)NC12CC(C)(C1)C2)c1cccc(OC(F)(F)F)c1` [Example 26, 1-(3-methyl-1-bicyclo[1.1.1]pentanyl)-3-[(1S)-1-[3-(trifluoromethoxy)phenyl]ethyl]urea] returned a Kv7.2 max of 58%.

In turn, `CC(C)C12CC(NC(=O)N[C@@H](C)c3cccc(OC(F)(F)F)c3)(C1)C2` [Example 27, 1-(3-propan-2-yl-1-bicyclo[1.1.1]pentanyl)-3-[(1S)-1-[3-(trifluoromethoxy)phenyl]ethyl]urea] registered a Kv7.2 max of 40%.

`O=C(NCc1cccc(OC(F)(F)F)c1)NC12CC(C1)C2` [Example 28, 1-(1-bicyclo[1.1.1]pentanyl)-3-[[3-(trifluoromethoxy)phenyl]methyl]urea] had a Kv7.2 max of 75%.

`O=C(NCc1cccc(OC(F)F)c1)NC12CC(C(F)(F)F)(C1)C2` [Example 29, 1-[[3-(difluoromethoxy)phenyl]methyl]-3-[3-(trifluoromethyl)-1-bicyclo[1.1.1]pentanyl]urea] had a Kv7.2 max of 52%.
